Among the data in patent US20240382494A1, “THERAPEUTIC COMPOUNDS” (priority 2023, published 2024) are IC50 and CC50 values, retold here.

By IC50 is commonly meant the midpoint of a concentration-inhibition curve. By CC50 is commonly meant the concentration at which the toxic effect on the cells reaches its halfway point.

Series [1] deals with SARS-CoV-2 PLpro (Severe acute respiratory syndrome coronavirus 2, UniProt P0DTD1). The series is described as follows: FRET-based PLpro enzymatic assay. In kind it is biochemical. The following applies: 200 nM PLpro, 10 μM FRET substrate, 30 min preincubation at 30° C.; read-out: IC50. The procedure:
The SARS-CoV-2 PL^pro enzymatic assays were carried out as follows. The assay was assembled in 96-well plates with 100 μl of 200 nM PL^Pro protein in PL^Pro reaction buffer [50 mM Hepes (pH 7.5), 0.01% Triton X-100, and 5 mM DTT]. Then, 1 μl of testing compound at various concentrations was added to each well and incubated at 30° C. for 30 minutes. The enzymatic reaction was initiated by adding 1 μl of 1 mM FRET substrate (the final substrate concentration is 10 μM). The reaction was monitored in a Cytation 5 image reader with filters for excitation at 360/40 nm and emission at 460/40 nm at 30° C. for 1 hour. The initial velocity of the enzymatic reaction with and without testing compounds was calculated by linear regression for the first 15 minutes of the kinetic progress curve. The IC50 values were calculated by plotting the initial velocity against various concentrations of testing compounds with a dose-response function in Prism 8 software.

The nature of series [2]: Cytotoxicity assay in Vero E6 cells (neutral red uptake). In kind it is cell-based. The following applies: African green monkey; Vero E6 cells, 2 days at 37° C., neutral red uptake; read-out: Vero CC50. The procedure:
Briefly, 80.000 cells/ml of the tested cell lines were dispensed into 96-well cell culture plates at 100 μl per well Twenty-four hours later, the growth medium was removed and washed with 150 μl of PBS buffer. Two hundred microliters of fresh serum-free medium containing serial diluted compounds was added to each well. After incubating for 2 days at 37° C., the medium was removed and replaced with 100 μl of DMEM medium containing neutral red (40 μg/ml) and incubated for 2 to 4 hours at 37° C. The amount of neutral red taken up was determined by measuring the absorbance at 540 nm using a Multiskan FC Microplate Photometer (Thermo Fisher Scientific) The CC50 values were calculated from best-fit dose-response curves with variable slope in Prism 8.

`Cc1ccc(OCCN(C)C)cc1C(=O)N[C@H](C)c1cc(-c2cnn(CCC#N)c2)nc2ccccc12` [Example 59, (R)—N-(1-(2-(1-(2-cyanoethyl)-1H-pyrazol-4-yl)quinolin-4-yl)ethyl)-5-(2-(dimethylamino)ethoxy)-2-methylbenzamide]: the IC50 in series [1] was greater than 5 µM. The CC50 at 2 days in series [2] came to 101 ± 15.2 µM.
Regarding `Cc1ccc(OCCN(C)C)cc1C(=O)N[C@H](C)c1cc(-c2cnc3[nH]ccc3c2)nc2ccccc12` [Example 60, (R)—N-(1-(2-(1H-pyrrolo[2,3-b]pyridin-5-yl)-quinolin-4-yl)ethyl)-5-(2-(dimethylamino)ethoxy)-2-methylbenzamide], in series [1], the IC50 was greater than 5 µM. Besides, in series [2], the CC50 at 2 days amounted to 25.8 ± 2.25 µM.
The matching figures for `Cc1ccc(OCCN(C)C)cc1C(=O)N[C@H](C)c1cc(-c2ccc3cn[nH]c3c2)nc2ccccc12` [Example 61, (R)—N-(1-(2-(1H-indazol-6-yl)quinolin-4-yl)ethyl)-5-(2-(dimethylamino)ethoxy)-2-methylbenzamide]: greater than 5 µM and 25.7 ± 2.09 µM.
The matching figures for `Cc1ccc(OCCN(C)C)cc1C(=O)N[C@H](C)c1cc(-c2cnn(C(F)(F)F)c2)nc2ccccc12` [Example 63, (R)-5-(2-(dimethylamino)ethoxy)-2-methyl-N-(1-(2-(1-(trifluoro-methyl)-1H-pyrazol-4-yl)quinolin-4-yl)ethyl)benzamide]: less than 0.5 µM and 17.7 ± 2.04 µM.
Regarding `Cc1ccc(OCCN(C)C)cc1C(=O)N[C@H](C)c1cc(-c2cnn(C3CCC3)c2)nc2ccccc12` [Example 64, (R)—N-(1-(2-(1-cyclobutyl-1H-pyrazol-4-yl)quinolin-4-yl)ethyl)-5-(2-(dimethylamino)ethoxy)-2-methylbenzamide], the concentration for half-maximal inhibition (IC50) in series [1] is less than 0.5 µM. The CC50 at 2 days in series [2] was determined as 25.3 ± 5.82 µM.
The matching figures for `Cc1ccc(OCCN(C)C)cc1C(=O)N[C@H](C)c1cc(-c2cnn(C(C)(C)C)c2)nc2ccccc12` [Example 65, (R)—N-(1-(2-(1-(tert-butyl)-1H-pyrazol-4-yl)quinolin-4-yl)ethyl)-5-(2-(dimethyl-amino)ethoxy)-2-methylbenzamide]: less than 0.5 µM and 19.1 ± 2.75 µM.
The matching figures for `Cc1ccc(OCCN(C)C)cc1C(=O)N[C@H](C)c1cc(-c2cncn2C)nc2ccccc12` [Example 66, (R)-5-(2-(dimethylamino)ethoxy)-2-methyl-N-(1-(2-(1-methyl-1H-imidazol-5-yl)quinolin-4-yl)ethyl)benzamide]: less than 0.5 µM and 79.5 ± 8.62 µM.
The matching figures for `COc1cccc(-c2cc([C@@H](C)NC(=O)c3cc(OCCN(C)C)ccc3C)c3ccccc3n2)c1` [Example 67, (R)-5-(2-(dimethylamino)ethoxy)-N-(1-(2-(3-methoxyphenyl)-quinolin-4-yl)ethyl)-2-methylbenzamide]: less than 0.5 µM and 17.2 ± 3.25 µM.
Regarding `COc1cc(-c2cc([C@@H](C)NC(=O)c3cc(OCCN(C)C)ccc3C)c3ccccc3n2)cs1` [Example 68, (R)-5-(2-(dimethylamino)ethoxy)-N-(1-(2-(5-methoxythiophene-3-yl)quinolin-4-yl)ethyl)-2-methylbenzamide], the 50% inhibitory concentration (IC50) in series [1] is less than 0.5 µM. Moreover, in series [2], the CC50 at 2 days was 13.9 ± 4.32 µM.
The matching figures for `Cc1ccc(OCCN(C)C)cc1C(=O)N[C@H](C)c1cc(-c2cnn(CC(=O)N3CCCC3)c2)nc2ccccc12` [Example 69, (R)-5-(2-(dimethylamino)ethoxy)-2-methyl-N-(1-(2-(1-(2-oxo-2-(pyrrolidin-1-yl)ethyl)-1H-pyrazol-4-yl)quinolin-4-yl)ethyl)benzamide]: less than 0.5 µM and 26.4 ± 4.5 µM.
The matching figures for `CSc1ccc(-c2cc([C@@H](C)NC(=O)c3cc(OCCN(C)C)ccc3C)c3ccccc3n2)cc1` [Example 70, (R)-5-(2-(dimethylamino)ethoxy)-2-methyl-N-(1-(2-(4-(methylthio)phenyl)quinolin-4-yl)ethyl)benzamide]: less than 0.5 µM and 8.5 ± 2.01 µM.
The matching figures for `Cc1ccc(OCCN(C)C)cc1C(=O)N[C@H](C)c1cc(-c2cnn(CC(=O)N(C)C)c2)nc2ccccc12` [Example 71, (R)—N-(1-(2-(1-(2-(dimethylamino)-2-oxoethyl)-1H-pyrazol-4-yl)quinolin-4-yl)ethyl)-5-(2-(dimethylamino)ethoxy)-2-methylbenzamide]: less than 0.5 µM and greater than 250 µM.
For the compound `Cc1ccc(N2CCN(C)CC2)cc1C(=O)N[C@H](C)c1cc(-c2ccco2)nc2ccccc12` [Example 74, (R)—N-(1-(2-(furan-2-yl)quinolin-4-yl)ethyl)-2-methyl-5-(4-methylpiperazin-1-yl)benzamide], in series [1], the IC50 is less than 0.5 µM. The CC50 at 2 days in series [2] came out at 19.5 ± 1.13 µM.
Turning to `Cc1ccc(N2CCN(C)C3(CC3)C2)cc1C(=O)N[C@H](C)c1cc(-c2cnn(C)c2)nc2ccccc12` [Example 80, (R)-2-methyl-N-(1-(2-(1-methyl-1H-pyrazol-4-yl)quinolin-4-yl)ethyl)-5-(4-methyl-4,7-diazaspiro[2.5]octan-7-yl)benzamide], the IC50 in series [1] was less than 0.5 µM. The CC50 at 2 days in series [2] was 49.7 ± 4.65 µM.
As to `Cc1ccc(O[C@H]2CCN(C)C2)cc1C(=O)N[C@H](C)c1cc(-c2cnn(C)c2)nc2ccccc12` [Example 82, 2-methyl-N—((R)-1-(2-(1-methyl-1H-pyrazol-4-yl)quinolin-4-yl)ethyl)-5-(((S)-1-methyl-pyrrolidin-3-yl)oxy)benzamide], in series [1], the IC50 is less than 0.5 µM. The CC50 at 2 days in series [2] was 48.3 ± 2.9 µM.
The matching figures for `Cc1ccc(OC[C@@H]2CCCN2C)cc1C(=O)N[C@H](C)c1cc(-c2cnn(C)c2)nc2ccccc12` [Example 84, 2-methyl-N—((R)-1-(2-(1-methyl-1H-pyrazol-4-yl)quinolin-4-yl)ethyl)-5-(((S)-1-methylpyrrolidin-2-yl)methoxy)benzamide]: less than 0.5 µM and 103 ± 24.4 µM.
The matching figures for `Cc1ccc(OC[C@@H]2C[C@@H](F)CN2C)cc1C(=O)N[C@H](C)c1cc(-c2cnn(C)c2)nc2ccccc12` [Example 85, 5-(((2S,4R)-4-fluoro-1-methylpyrrolidin-2-yl)methoxy)-2-methyl-N—((R)-1-(2-(1-methyl-1H-pyrazol-4-yl)quinolin-4-yl)ethyl)benzamide]: less than 0.5 µM and 33.9 ± 3.74 µM.
The matching figures for `Cc1ccc(C2=CCN(C)CC2)cc1C(=O)N[C@H](C)c1cc(-c2cnn(C)c2)nc2ccccc12` [Example 86, (R)-2-methyl-5-(1-methyl-1,2,3,6-tetrahydropyridin-4-yl)-N-(1-(2-(1-methyl-1H-pyrazol-4-yl)quinolin-4-yl)ethyl)benzamide]: 1 to 5 µM and 92.7 ± 4.59 µM.
Regarding `Cc1ccc(N2CCC(N(C)C)CC2)cc1C(=O)N[C@H](C)c1cc(-c2cnn(C)c2)nc2ccccc12` [Example 87, (R)-5-(4-(dimethylamino)piperidin-1-yl)-2-methyl-N-(1-(2-(1-methyl-1H-pyrazol-4-yl)quinolin-4-yl)ethyl)benzamide], the IC50 in series [1] was in the range of 1 to 5 µM. Further, in series [2], the CC50 at 2 days was 73.8 ± 5.88 µM.
On to `Cc1ccc(N(C)C2CN(C)C2)cc1C(=O)N[C@H](C)c1cc(-c2cnn(C)c2)nc2ccccc12` [Example 88, (R)-2-methyl-5-(methyl(1-methylazetidin-3-yl)amino)-N-(1-(2-(1-methyl-1H-pyrazol-4-yl)quinolin-4-yl)ethyl)benzamide], for which, in series [1], the IC50 was in the range of 1 to 5 µM. Also, the CC50 at 2 days in series [2] is 97.4 ± 6.51 µM.
The matching figures for `Cc1ccc(N(C)CC2CN(C)C2)cc1C(=O)N[C@H](C)c1cc(-c2cnn(C)c2)nc2ccccc12` [Example 89, (R)-2-methyl-5-(methyl((1-methylazetidin-3-yl)methyl)amino)-N-(1-(2-(1-methyl-1H-pyrazol-4-yl)quinolin-4-yl)ethyl)benzamide]: 1 to 5 µM and 89.3 µM.
Consider `Cc1ccc(OC2CN(C)C2)cc1C(=O)N[C@H](C)c1cc(-c2cnn(C)c2)nc2ccccc12` [Example 90, (R)-2-methyl-N-(1-(2-(1-methyl-1H-pyrazol-4-yl)quinolin-4-yl)ethyl)-5-((1-methylazetidin-3-yl)oxy)benzamide], for which the half-inhibitory concentration (IC50) in series [1] was less than 0.5 µM. In addition, the CC50 at 2 days in series [2] is 72.5 ± 2.08 µM.
The matching figures for `Cc1ccc(OCC2CN(C)C2)cc1C(=O)N[C@H](C)c1cc(-c2cnn(C)c2)nc2ccccc12` [Example 91, (R)-2-methyl-N-(1-(2-(1-methyl-1H-pyrazol-4-yl)quinolin-4-yl)ethyl)-5-((1-methylazetidin-3-yl)methoxy)benzamide]: less than 0.5 µM and 96.1 ± 5.36 µM.
Regarding `Cc1ccc(N2CCC3(CC2)CN(C)C3)cc1C(=O)N[C@H](C)c1cc(-c2cnn(C)c2)nc2ccccc12` [Example 92, (R)-2-methyl-N-(1-(2-(1-methyl-1H-pyrazol-4-yl)quinolin-4-yl)ethyl)-5-(2-methyl-2,7-diazaspiro[3.5]nonan-7-yl)benzamide], the IC50 in series [1] was 0.5 to 1 µM. The CC50 at 2 days in series [2] was 76.5 ± 2.18 µM.
